The source of these data is patent US10246498B2, “Genetically encoded histone reporter allele constructs” (THE JOHNS HOPKINS UNIVERSITY, priority 2014, dated 2019).

The test system of the assay is genome-wide H3K4me3. In words: ChIP-seq of H3K4me3 in spleen cells of treated mice. Format: in vivo, mouse. The settings on record: 10 mg/kg/day, spleen cells of Kmt2d+/βGeo mice. The protocol:
Spleens were dissected from eight mice, four from each kmt2d genotype (+/βGeo or +/+) where half of each genotype was treated with AR-42 and half with vehicle only. Spleens were minced and passed through a 40 μm cell strainer to obtain single cell suspensions. 10 million cells were used for each ChIP-seq experiment following the native chromatin immunoprecipitation protocol, as previously described (Gilfillan et al. (2012) BMC Genomics 13:645), using a ChIP-grade antibody against H3K4me3 (9727, Cell Signaling Technology, Beverly, Mass.).
Sequencing was performed using a MiSeq system (Illumina, San Diego, Calif.). 4.8-9.6 million paired-end 26 bp reads were obtained per sample (Table 1; nReads=number of reads, alignRate=fraction aligned to genome; FRIP=fraction of reads in peaks). Reads were aligned to the m. musculus genome, version mm10, using Bowtie 2 (Langmead and Salzberg (2012) Nat. Methods. 9: 357-9). Each sample was examined with regard to alignment rate as well as FRIP (fraction of reads in peaks), a measure of the ChIP efficiency (Table 1). […] For analysis, reads were merged into one meta-sample and peak calling was performed using MACS version 1.4.2 (Zhang et al. (2008) Genome Biol. 9: R137). […] This created a peak by sample matrix of read counts. […] Fold change and overall abundance was calculated as per edgeR. […]

“Also recorded” adds a separate entry of the source.

For `CC(C)[C@H](C(=O)Nc1ccc(C(=O)NO)cc1)c1ccccc1` [AR-42], the “genome-wide deficiency of H3K4me3 (ChIP-seq)” value is reported as “genome-wide increase in H3K4me3; also recorded: overcorrection; also recorded: improved; also recorded: recovered; also recorded: normalized (but somewhat over corrected)”.
